From ChEMBL document CHEMBL5356981, “Discovery of potential scaffolds for glutaminyl cyclase inhibitors: Virtual screening, synthesis, and evaluation” (Bioorg Med Chem, 2024)

Biological target: Glutaminyl-peptide cyclotransferase (Homo sapiens, UniProt Q16769)
Test: Inhibition of N-terminal his6-tagged human recombinant glutaminyl cyclase expressed in Escherichia coli using H-Gln-AMC as substrate incubated for 60 mins in presence of pyroglutamyl peptidase

Glutaminyl-peptide cyclotransferase, sequence (Q16769 whole entry): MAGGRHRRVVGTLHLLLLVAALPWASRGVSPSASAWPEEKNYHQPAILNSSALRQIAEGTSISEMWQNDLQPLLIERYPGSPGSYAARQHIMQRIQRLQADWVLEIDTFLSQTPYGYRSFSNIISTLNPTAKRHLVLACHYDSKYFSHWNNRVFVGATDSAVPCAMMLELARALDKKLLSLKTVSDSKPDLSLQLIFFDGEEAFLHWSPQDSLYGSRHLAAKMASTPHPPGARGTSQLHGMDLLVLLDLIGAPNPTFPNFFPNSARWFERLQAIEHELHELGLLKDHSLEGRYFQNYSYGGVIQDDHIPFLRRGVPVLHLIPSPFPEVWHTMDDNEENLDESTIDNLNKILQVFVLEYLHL

COc1ccc(S(=O)(=O)Nc2ccc(-c3cn[nH]c3)cc2)cc1
IC50: > 30 µM
